Test results as given in patent US20260317333A1, “Heteroaryl Compounds as Ligand Directed Degraders of IRAK4” (Celgene Corporation, priority 2023, published 2026).
Where a name gives a salt, the structure may show the parent alone.

How the values were obtained:
[1] = target: T1, IRAK4 (Homo sapiens, UniProt Q9NWZ3); assay: ALE THP1 HTRF (IRAK4 degradation in THP1 cells, HTRF with anti-IRAK4 antibodies); format: cell-based; set-up: THP1 Homogeneous Time Resolved Fluorescence (ALE THP1 HTRF) Procedure; endogenous in cells; host or cells: THP1; details: THP1 cell lysate; for DC50: read-out: ALE THP1 HTRF EC50
T1 sequence (Q9NWZ3 1-460): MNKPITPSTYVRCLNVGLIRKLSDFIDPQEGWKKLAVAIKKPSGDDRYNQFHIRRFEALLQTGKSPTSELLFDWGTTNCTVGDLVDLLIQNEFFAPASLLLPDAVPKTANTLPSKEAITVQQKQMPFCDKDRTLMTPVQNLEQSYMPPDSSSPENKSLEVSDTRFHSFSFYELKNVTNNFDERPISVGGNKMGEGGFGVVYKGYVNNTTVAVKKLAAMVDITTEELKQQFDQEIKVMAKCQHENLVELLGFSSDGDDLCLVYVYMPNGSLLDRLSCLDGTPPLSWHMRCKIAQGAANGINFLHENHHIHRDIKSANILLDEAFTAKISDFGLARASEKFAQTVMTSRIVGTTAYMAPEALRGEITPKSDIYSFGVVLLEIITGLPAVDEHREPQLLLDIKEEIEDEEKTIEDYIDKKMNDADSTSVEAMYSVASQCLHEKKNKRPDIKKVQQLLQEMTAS
Experimental: Cell culture media was prepared in a tissue culture hood in a sterile environment by adding 10% FBS and 1% Penicillin Streptomycin to 500 mL no phenol red RPMI 1640 media. The media was filtered through a Nalgene Bottle Top Filter and stored at 4° C.
For Homogenous Time Resolved Fluorescence (HTRF) assays, a Cisbio HTRF kit was used, which included: Lysis Buffer #1 4×, Blocking Reagent #3 100×, 20× Antibody 1 (Anti-IRAK4 d2), 20× Antibody 2 (Anti-IRAK4 k), and Detection Buffer.
4× Lysis Buffer was stored at 4° C. For use as 1× Lysis buffer, the 4× solution was diluted with de-ionized water (distilled water, Gibco Cat. #15230279) and 100× Blocking Reagent in a 1:3:0.04 volume ratio.
20× Antibody Solution aliquots were stored at −80° C. and the Detection Buffer was stored at 4° C. For use as a 1× Antibody Solution, the 20× Antibody Solution aliquot was diluted with Detection Buffer in a 1:19 volume ratio.
Cells were lysed at room temperature for 45 min with shaking. A BCA protein assay was performed and normalization was conducted to the desired total protein concentration with 1× lysis buffer. Next, 1× Antibody Solutions were prepared by adding 380 μL Detection Buffer to 20 μL 20× Antibody Solution aliquots and mixing well. 1× Antibody Solutions were combined 1:1 and briefly vortexed. For control wells, 20 μL 1× anti IRAK4-k Antibody Solution was saved. The 384-well plate (ProxiPlate-384 Plus, Perkin Elmer Cat. #6008289) was loaded by adding 4 μL of the mixed Antibody Solution to empty wells using a single channel repeater. Using a multi-channel repeater, 16 μL lysate was added per well, and any bubbles that were formed were popped with 20 μL pipette tips and Kimwipe edges. In column 10, triplicates of each control were prepared. In wells A10, B10, and C10, buffer control was prepared by adding 16 μL Lysis Buffer and 4 μL Detection Buffer. In wells D10, E10, and F10, cryptate control was prepared by adding 16 μL Lysis Buffer, 2 μL Detection Buffer, and 2 μL 1× anti-IRAK4-k Antibody Solution. In wells G10, H10, and I10, a negative control was prepared by adding 16 μL Lysis Buffer and 4 μL mixed Antibody Solution. The plate was sealed with a clear seal and covered with an aluminum lid. The plate was spun down at 800 g for 5 min and incubated in the dark at room temperature overnight. The next day, the plate was spun down at 800 g for 5 min. The samples were analyzed by a plate reader (Envision, PerkinElmer) using the Desnor 384 HTRF program.

[2] = target: T1, IRAK4; assay: IRAK4 PhosphoSens Biochemical Assay (BIOCHEM); details: 200 μM ATP; 10 μM peptide substrate AQT0326; 1 nM IRAK4; room temperature; 240 minutes
Experimental: The PhosphoSens® biochemical assay was performed as described by the vendor (AssayQuant Technologies Inc. Marlborough, MA). A 1.25× stock solution of IRAK4 (PV4002, ThermoFisher Scientific, Waltham, MA) and a 5× stock solution of ATP and Sox conjugated peptide substrate, AQT0326 (CSKS-AQT0326B, AssayQuant Technologies), were prepared in 1× kinase reaction buffer consisting of 50 mM HEPES, pH 7.5, 0.01% Brij-35, 0.5 mM EGTA, 20 mM MgCl2 and 1 mM DTT. 10 μL of the ATP and substrate solution mix, for a final concentration of 200 μM ATP and 10 μM peptide substrate, was added to a Corning 3574 384-well, white, non-binding surface microtiter plate containing 0.5 μL of serially diluted test compounds prepared in DMSO. The reactions were started with the addition of 40 μL of the enzyme solution, for a final IRAK4 concentration of 1 nM, and monitored every 71 seconds for 240 minutes at λEX 360/λEM 485 in a BioTek Synergy H4 plate reader (Agilent Technologies, Santa Clara, CA) at room temperature. The initial linear portions of the progress curves were fit according to a linear equation to yield the slopes and converted to % inhibition based on a value of 100% activity for the no inhibitor treated control. IC50 values of each compound were obtained by fitting the % inhibition-compound concentration curves using Dotmatics software (Dotmatics, Bishops Stortford, Hertfordshire, England).

SMILES | ALE THP1 HTRF YMIN [1] [%] | DC50 [1] [nM] | IC50 [2] [nM]
N[C@@H]1C[C@@H](F)CN(c2ccn3ncc(C(=O)Nc4cn([C@H]5CC[C@H](C(=O)N6CCC(CNc7cccc(C8CCC(=O)NC8=O)c7)CC6)CC5)nc4C(F)(F)F)c3n2)C1 (stereo partly drawn) [Compound P-1, N-[1-[4-[4-[[3-(2,6-dioxo-3-piperidyl)anilino]methyl]piperidine-1-carbonyl]cyclohexyl]-3-(trifluoromethyl)pyrazol-4-yl]-5-[(3R,5R)-3-amino-5-fluoro-1-piperidyl]pyrazolo[1,5-a]pyrimidine-3-carboxamide hydrochloride salt] | 10 | 7 | 0.4
N[C@@H]1C[C@@H](F)CN(c2ccn3ncc(C(=O)Nc4cn([C@H]5CC[C@H](C(=O)N6CCC(CNc7ccc(C8CCC(=O)NC8=O)cc7)CC6)CC5)nc4C(F)(F)F)c3n2)C1 (stereo partly drawn) [Compound P-2, N-[1-[4-[4-[[4-(2,6-Dioxo-3-piperidyl)anilino]methyl]piperidine-1-carbonyl]cyclohexyl]-3-(trifluoromethyl)pyrazol-4-yl]-5-[(3R,5R)-3-amino-5-fluoro-1-piperidyl]pyrazolo[1,5-a]pyrimidine-3-carboxamide hydrochloride] | 68 | 96 | 0.3
N[C@@H]1C[C@@H](F)CN(c2ccn3ncc(C(=O)Nc4cn([C@H]5CC[C@H](CN6CCC(CNc7ccc(C8CCC(=O)NC8=O)cc7)CC6)CC5)nc4C(F)(F)F)c3n2)C1 (stereo partly shown) [Compound P-3] | 81 | 177 | 0.3
N[C@@H]1C[C@@H](F)CN(c2ccn3ncc(C(=O)Nc4cn([C@H]5CC[C@H](C(=O)N6CCC(Nc7ccc(C8CCC(=O)NC8=O)cc7)CC6)CC5)nc4C(F)(F)F)c3n2)C1 (stereo partly shown) [Compound P-7] | 52 | > 10000 | 0.3
N[C@@H]1C[C@@H](F)CN(c2ccn3ncc(C(=O)Nc4cn([C@H]5CC[C@H](C(=O)N6CCC(Nc7cccc(C8CCC(=O)NC8=O)c7)CC6)CC5)nc4C(F)(F)F)c3n2)C1 (stereo partly shown) [Compound P-9] | 86 | > 10000 | 0.3
N[C@@H]1C[C@@H](F)CN(c2ccn3ncc(C(=O)Nc4cn([C@H]5CC[C@H](CN6CCN(c7ccc(C8CCC(=O)NC8=O)cc7)CC6)CC5)nc4C(F)(F)F)c3n2)C1 (stereo partly shown) [Compound P-10] | 20 | 964 | 0.6
N[C@@H]1C[C@@H](F)CN(c2ccn3ncc(C(=O)Nc4cn([C@H]5CC[C@H](CCN6CCN(c7ccc(C8CCC(=O)NC8=O)cc7)CC6)CC5)nc4C(F)(F)F)c3n2)C1 (stereo partly drawn) [Compound P-11, 5-((3R,5R)-3-Amino-5-fluoropiperidin-1-yl)-N-(1-((1r,4r)-4-(2-(4-(4-(2,6-dioxopiperidin-3-yl)phenyl)piperazin-1-yl)ethyl)cyclohexyl)-3-(trifluoromethyl)-1H-pyrazol-4-yl) pyrazolo[1,5-a]pyrimidine-3-carboxamide hydrochloride] | 19 | 15 | 0.4
N[C@@H]1C[C@@H](F)CN(c2ccn3ncc(C(=O)Nc4cn([C@H]5CC[C@H](CCN6CCC7(CC6)CN(c6cccc(C8CCC(=O)NC8=O)c6)C7)CC5)nc4C(F)F)c3n2)C1 (stereo partly shown) [Compound P-26] | 7 | 15 | 
N[C@@H]1C[C@@H](F)CN(c2ccn3ncc(C(=O)Nc4cn(C5CCN(CCN6CCN(c7ccc(C8CCC(=O)NC8=O)cc7)CC6)CC5)nc4C(F)F)c3n2)C1 (stereo partly drawn) [Compound P-27, 5-((3R,5R)-3-Amino-5-fluoropiperidin-1-yl)-N-(3-(difluoromethyl)-1-(1-(2-(4-(4-(2,6-dioxopiperidin-3-yl)phenyl)piperazin-1-yl)ethyl)piperidin-4-yl)-1H-pyrazol-4-yl) pyrazolo[1,5-a]pyrimidine-3-carboxamide trihydrochloride] | 16 | 10 | 
N[C@@H]1C[C@@H](F)CN(c2ccn3ncc(C(=O)Nc4cn([C@H]5CC[C@H](CCN6CCC[C@H](c7ccc(C8CCC(=O)NC8=O)cc7)C6)CC5)nc4C(F)F)c3n2)C1 (stereo partly shown) [Compound P-28] | >95 | > 10000 | 
N[C@@H]1C[C@@H](F)CN(c2ccn3ncc(C(=O)Nc4cn([C@H]5CC[C@H](C(=O)N[C@H]6CC[C@@H](c7ccc(C8CCC(=O)NC8=O)nc7)CC6)CC5)nc4C(F)F)c3n2)C1 (stereo partly shown) [Compound P-30] | >95 | > 10000 | 
N[C@@H]1C[C@@H](F)CN(c2ccn3ncc(C(=O)Nc4cn([C@H]5CC[C@H](C(=O)N[C@H]6CC[C@@H](c7ccc(C8CCC(=O)NC8=O)cn7)CC6)CC5)nc4C(F)F)c3n2)C1 (stereo partly shown) [Compound P-31] | >95 | > 10000 | 
N[C@@H]1C[C@@H](F)CN(c2ccn3ncc(C(=O)Nc4cn([C@H]5CC[C@H](C(=O)NC6CCN(c7ccc(C8CCC(=O)NC8=O)cn7)CC6)CC5)nc4C(F)F)c3n2)C1 (stereo partly drawn) [Compound P-32, N-[3-(Difluoromethyl)-1-[4-[[1-[5-(2,6-dioxo-3-piperidyl)-2-pyridyl]-4-piperidyl]carbamoyl]cyclohexyl]pyrazol-4-yl]-5-[(3R,5R)-3-amino-5-fluoro-1-piperidyl]pyrazolo[1,5-a]pyrimidine-3-carboxamide hydrochloride] | 21 | 5 | 
N[C@@H]1C[C@@H](F)CN(c2ccn3ncc(C(=O)Nc4cn([C@H]5CC[C@H](C(=O)N[C@H]6CC[C@H](c7ccc(C8CCC(=O)NC8=O)cn7)CC6)CC5)nc4C(F)F)c3n2)C1 (stereo partly shown) [Compound P-33] | 22 | 3 | 
N[C@@H]1C[C@@H](F)CN(c2ccn3ncc(C(=O)Nc4cn([C@H]5CC[C@H](C(=O)N[C@H]6CC[C@H](c7ccc(C8CCC(=O)NC8=O)nc7)CC6)CC5)nc4C(F)F)c3n2)C1 (stereo partly shown) [Compound P-34] | 13 | 5 | 
